The values that follow come from PubChem BioAssay (NCI).

SMILES strings stand for the structures.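 Cells were grown in 96-well plates and exposed to each compound for 48 hours at five concentrations; endpoints were interpolated linearly between bracketing concentrations, or set to the highest concentration if not reached. Here, GI50 denotes the concentration required for 50% inhibition of growth. TGI marks complete inhibition of growth.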

Some test systems named below: MDA-MB-435; OVCAR-8 ovarian; SK-MEL-5 melanoma; SR leukemia; PC-3 prostate; CAKI-1 renal; NCI-H522 lung; MCF7 breast; HCT-116 colon; COLO 205 colon.
Assay in all cases: DTP human tumour cell line panel, 48 h

On to `O=C1CC(c2c[nH]c3ccc(F)cc23)C(=O)N1` (centres undefined), for which the GI50 in the experiment on MDA-MB-435, in the experiment on OVCAR-8 ovarian, in the experiment on SK-MEL-5 melanoma, in the experiment on SR leukemia, in the experiment on PC-3 prostate and in the experiment with CAKI-1 renal was greater than 100 µM each time. The GI50 in the experiment on NCI-H522 lung, in the experiment on MCF7 breast, in the experiment on HCT-116 colon and in the experiment with COLO 205 colon was greater than 100 µM each time. Also, the total growth inhibition concentration (TGI) in the experiment with MDA-MB-435, in the experiment with OVCAR-8 ovarian, with SK-MEL-5 melanoma, in the experiment on SR leukemia, in the experiment with PC-3 prostate and in the experiment with CAKI-1 renal was greater than 100 µM in each case. For the same compound, the TGI in the experiment on NCI-H522 lung, in the experiment with MCF7 breast, with HCT-116 colon and in the experiment with COLO 205 colon was greater than 100 µM each time.

Take `CO[C@H]1C[C@@H]2CC[C@@H](C)[C@@](O)(O2)C(=O)C(=O)N2CCCC[C@H]2C(=O)O[C@H]([C@H](C)C[C@@H]2CC[C@@H](OC(=O)C(C)(CO)CO)[C@H](OC)C2)CC(=O)[C@H](C)/C=C(\C)[C@@H](O)[C@@H](OC)C(=O)[C@H](C)C[C@H](C)\C=C/C=C/C=C/1C`: the GI50 (as a rule, the concentration that inhibits growth by half) with MDA-MB-435 was 2.36 µM; in the experiment with SK-MEL-5 melanoma, 1.35 µM; in the experiment on SR leukemia, 0.00251 µM; with PC-3 prostate it was 0.00144 µM; in the experiment with CAKI-1 renal, 0.0352 µM; in the experiment with NCI-H522 lung, 0.444 µM. For the same compound, the concentration for 50% growth inhibition (GI50) in the experiment with MCF7 breast is 0.00422 µM; in the experiment with HCT-116 colon, greater than 10 µM; in the experiment on COLO 205 colon it was greater than 5.94 µM. The total growth inhibition concentration (TGI) in the experiment with MDA-MB-435, in the experiment on OVCAR-8 ovarian, in the experiment with SK-MEL-5 melanoma, in the experiment with SR leukemia, with PC-3 prostate and in the experiment on CAKI-1 renal was greater than 10 µM throughout. Besides, the concentration for total growth inhibition (TGI) with NCI-H522 lung, in the experiment with MCF7 breast, in the experiment with HCT-116 colon and in the experiment on COLO 205 colon was greater than 10 µM in each case.

Consider `CCOC(=O)c1c(-c2ccccc2)[n+](=O)c2cc(Cl)c(Cl)cc2n1[O-]`, for which the GI50 in the experiment with MDA-MB-435 was 5.36 µM; in the experiment on OVCAR-8 ovarian it was 2.8 µM; in the experiment on SK-MEL-5 melanoma, 14.8 µM; in the experiment on SR leukemia it was 0.529 µM; with PC-3 prostate, 0.769 µM; with CAKI-1 renal, 1.64 µM. For the same compound, the GI50 was 14.2 µM in the experiment with NCI-H522 lung, 2.03 µM in the experiment with MCF7 breast, 2.57 µM in the experiment on HCT-116 colon and 3.85 µM with COLO 205 colon. Besides, the concentration for total growth inhibition (TGI) (commonly the concentration giving total growth inhibition) is 19 µM with MDA-MB-435; 8.01 µM with OVCAR-8 ovarian; 28.8 µM in the experiment with SK-MEL-5 melanoma; greater than 100 µM in the experiment with SR leukemia; 62.1 µM with PC-3 prostate; 3.2 µM in the experiment with CAKI-1 renal. Further, the TGI in the experiment on NCI-H522 lung was greater than 100 µM; in the experiment with MCF7 breast, 20.9 µM; in the experiment on HCT-116 colon, 11.1 µM; in the experiment with COLO 205 colon it was 23.6 µM.

For `Oc1ccc(Cl)cc1C(c1cc(Cl)ccc1O)C(Cl)(Cl)Cl`, the GI50 in the experiment with MDA-MB-435 was 1.95 µM; with OVCAR-8 ovarian, 2.89 µM; with SK-MEL-5 melanoma, 1.58 µM; with SR leukemia, 1.5 µM; in the experiment with PC-3 prostate, 1.79 µM; in the experiment with CAKI-1 renal it was 1.97 µM. The GI50 in the experiment on NCI-H522 lung was 1.87 µM; with MCF7 breast, 2.42 µM; in the experiment with HCT-116 colon, 1.56 µM; in the experiment on COLO 205 colon, 1.9 µM. The TGI in the experiment with MDA-MB-435 was determined as 4.21 µM; in the experiment with OVCAR-8 ovarian it was 9.59 µM; with SK-MEL-5 melanoma it was 3.05 µM; in the experiment on SR leukemia, 5.34 µM; in the experiment on PC-3 prostate, 4.76 µM; in the experiment on CAKI-1 renal, 6.06 µM. In addition, the concentration for total growth inhibition (TGI) in the experiment with NCI-H522 lung amounted to 5.44 µM; in the experiment with MCF7 breast, 6.65 µM; with HCT-116 colon it was 2.97 µM; in the experiment on COLO 205 colon, 3.82 µM.

As for `CCCCN(CCCC)C(=O)[C@H](CC)[C@@H]1CC[C@@H](C)[C@@H]([C@H](C)[C@@H](O)[C@@H](C)C(=O)[C@H](CC)C2O[C@]3(C=C[C@@H](O)[C@]4(CC[C@@](C)([C@H]5CC[C@](O)(CC)[C@H](C)O5)O4)O3)[C@H](C)C[C@@H]2C)O1` (some centres undefined), the GI50 in the experiment with MDA-MB-435 is 2.92 µM; in the experiment on OVCAR-8 ovarian it was 3.43 µM; with SK-MEL-5 melanoma, 1.73 µM; in the experiment on SR leukemia it was 2.89 µM; in the experiment with PC-3 prostate, 2.05 µM; in the experiment with CAKI-1 renal, 1.91 µM. Also, the GI50 with NCI-H522 lung was 2.08 µM; with MCF7 breast, 2.4 µM; with HCT-116 colon, 2.39 µM; in the experiment on COLO 205 colon it was 2.45 µM. The concentration for total growth inhibition (TGI) with MDA-MB-435 stood at 10.1 µM; with OVCAR-8 ovarian it was 65.4 µM; with SK-MEL-5 melanoma, 3.15 µM; with SR leukemia, 8.53 µM; in the experiment with PC-3 prostate, 16.8 µM; in the experiment on CAKI-1 renal, 9.02 µM. For the same compound, the total growth inhibition concentration (TGI) came out at 5.44 µM in the experiment on NCI-H522 lung, 7.77 µM with MCF7 breast, 6.9 µM in the experiment with HCT-116 colon and 5.99 µM in the experiment with COLO 205 colon.

In the case of `Clc1nccc2c(-c3csc(-c4c[nH]c5ccc(Br)cc45)n3)c[nH]c12`, the GI50 is 3.43 µM in the experiment with MDA-MB-435; 3.65 µM in the experiment on OVCAR-8 ovarian; 2.61 µM in the experiment on SK-MEL-5 melanoma; 1.27 µM in the experiment with SR leukemia; 3.86 µM in the experiment with PC-3 prostate; 1.96 µM with CAKI-1 renal. Besides, the GI50 with NCI-H522 lung was 2.28 µM; with MCF7 breast, 2.2 µM; in the experiment on HCT-116 colon it was 2.35 µM; in the experiment with COLO 205 colon, 1.8 µM. The TGI is 13 µM in the experiment with MDA-MB-435; 16.2 µM in the experiment with OVCAR-8 ovarian; 6.42 µM in the experiment with SK-MEL-5 melanoma; greater than 100 µM in the experiment with SR leukemia; 14 µM with PC-3 prostate; 8.04 µM in the experiment on CAKI-1 renal. The concentration for total growth inhibition (TGI) in the experiment on NCI-H522 lung is 6.86 µM; with MCF7 breast, 11.6 µM; in the experiment with HCT-116 colon, 10.5 µM; in the experiment with COLO 205 colon, 5.61 µM.

As for `CCOCC1(COCC)CCC(c2[nH]ncc2CN(C)CCNC)CC1`, the GI50 is greater than 100 µM in the experiment on MDA-MB-435; greater than 100 µM with OVCAR-8 ovarian; greater than 100 µM in the experiment on SK-MEL-5 melanoma; 23.7 µM in the experiment with SR leukemia; 59.4 µM in the experiment with PC-3 prostate; greater than 100 µM in the experiment on CAKI-1 renal. The GI50 with NCI-H522 lung, with MCF7 breast, in the experiment with HCT-116 colon and in the experiment on COLO 205 colon was greater than 100 µM each time. For the same compound, the total growth inhibition concentration (TGI) in the experiment on MDA-MB-435, in the experiment with OVCAR-8 ovarian, in the experiment with SK-MEL-5 melanoma, with SR leukemia, with PC-3 prostate and in the experiment on CAKI-1 renal was greater than 100 µM in each case. Besides, the TGI with NCI-H522 lung, in the experiment with MCF7 breast, in the experiment with HCT-116 colon and in the experiment on COLO 205 colon was greater than 100 µM each time.
